{"source": "patent US4822791A", "about": "“Pharmaceutical compositions of-2,2-1,1-[bis-2,2'-(3,1-benzoxazin-4-one)9 ethylenes” (priority 1984, dated 1989)", "key": {"[1]": {"tested_on": "passive cutaneous anaphylaxis (PCA)", "test": "Anti-passive cutaneous anaphylaxis (PCA) activity in rats (Test Example 2)", "format": "in vivo, Wistar strain rats", "conditions": "Rattus norvegicus, N 10; for inhibition in vivo at 10 mg/kg: 10 mg/kg PO; for inhibition in vivo at 50 mg/kg: 50 mg/kg PO; for inhibition in vivo at 100 mg/kg: 100 mg/kg PO", "method_in_brief": "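Antiserum from Wistar rats sensitized with ovalbumin (alum plus B. pertussis adjuvant) was diluted 16- or 32-fold and injected into dorsal skin of naive rats, which were held 48 h. Compound was given orally 1 h before i.v. ovalbumin plus Evans blue.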"}, "[2]": {"biological_target": "T1, hyaluronidase (Bos taurus, UniProt Q2YDK3)", "T1 sequence (Q2YDK3 36-553)": "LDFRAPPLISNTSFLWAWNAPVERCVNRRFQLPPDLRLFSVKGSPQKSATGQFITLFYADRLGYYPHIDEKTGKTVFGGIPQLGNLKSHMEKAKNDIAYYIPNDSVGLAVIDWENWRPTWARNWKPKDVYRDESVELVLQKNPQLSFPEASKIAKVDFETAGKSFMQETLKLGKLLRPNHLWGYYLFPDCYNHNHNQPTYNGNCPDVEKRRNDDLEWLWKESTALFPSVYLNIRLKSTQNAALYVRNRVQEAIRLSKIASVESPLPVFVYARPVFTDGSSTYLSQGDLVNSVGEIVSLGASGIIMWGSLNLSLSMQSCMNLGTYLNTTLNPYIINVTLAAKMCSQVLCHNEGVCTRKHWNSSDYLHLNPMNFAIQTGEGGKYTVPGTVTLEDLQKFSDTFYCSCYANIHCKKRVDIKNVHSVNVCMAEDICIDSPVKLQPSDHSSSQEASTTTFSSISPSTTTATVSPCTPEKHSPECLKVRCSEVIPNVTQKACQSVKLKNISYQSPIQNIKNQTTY", "test": "Anti-hyaluronidase activity (modified Morgan-Elson method)", "format": "biochemical", "conditions": "hyaluronidase 340NF unit/ml; activating agent Compound 48/80 or CaCl2; read-out: IC50", "quoted_text": "A buffer soluticn of hyaluronidase (0.1 ml) was taken in a test tube and 0.2 ml each of the buffer solution of various compounds in various concentrations was added, and the mixture was preincubated at 37° C. for 20 minutes. Then, an activating agent (Compound 48/80 or CaCl2) (0.2 ml) was added to make the total amount 0.5 ml, which was incubated at 37° C. for 20 minutes. Then, potassium hyaluronate buffer solution (0.5 ml) was added, and the mixture was incubated at 37° C. for 40 minutes. After cooling, the mixture was treated with aqueous solution of 0.4N NaOH (0.2 ml) and neutralized to stop the reaction. The resulting product was subjecred to measurement of OD585 by the modified Morgan-Elson Method. […] (The final ccncentration of hyaluronidase was 340NF unit/ml.) [formula]"}, "[3]": {"tested_on": "passive cutaneous anaphylaxis (PCA)", "test": "Anti-passive cutaneous anaphylaxis activity (PCA) in rats (Test Example 9)", "format": "in vivo", "conditions": "Rattus norvegicus, po, 50 mg/kg, 10 animals", "method_in_brief": "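Antiserum came from Wistar rats sensitized with ovalbumin (aluminium hydroxide plus B. pertussis adjuvant) and bled at day 14. It was diluted 12- and 24-fold and injected into the dorsal skin of naive rats 48 h before challenge.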"}, "[4]": {"tested_on": "SRS-A", "test": "Anti-SRS-A activity, contraction of guinea pig ileum by crude SRS-A solution", "parameters": "key to Anti-SRS-A activity (rate of inhibition against the contraction amount): % inhibition of SRS-A-induced ileum contraction", "method": "A piece of lungs of guinea pig sensitized with ovalbumin was incubated with antigen ovalbumin at 37° C. for 20 minutes to obtain a supernatant solution, which was used as a crude SRS-A solution.\nA piece of ileum of normal guinea pig was suspended in Magnus tube filled with Tyrode's solution and incubated with the solution of drug to be examined for a certain duration, and the contraction of the piece of ileum induced by adding the above crude SRS-A solution was determined on the basis of the contraction rate attributed to hystamine dihydrochloride 10^-6 M. The rate of inhibition against the contraction amount was taken as anti-SRS-A activity."}, "[5]": {"test": "Acute toxicity LD50 in rats (Test Example 8)", "conditions": "rat, in vivo, po; one week; Probit method; read-out: LD50 value (mg/kg body weight) Rat p.o.", "method": "ddy-Strain mice (male) and Wistar strain rats were used to obtain LD50 values.\nAccording to the ordinary procedure, suspension or solution of test sample was administered to the animals. From the number of the died animals until one week after the administration, LD50 values were obtained by Probit method."}, "[6]": {"tested_on": "mast cell in abdominal cavity", "test": "Inhibition of histamine release from mast cell in abdominal cavity in rat (Test Example 6)", "format": "cell-based", "method": "Examination was made on the activity of inhibition of histamine release from mast cell by antigen-antibody reaction.\nSwine ascaris extract solution was dinitrophenylated according to Aisen's method, dialysed, and lyophilized. The product was administered as antigen together with Bordetella Pertussis vaccine subcutaneously into the foot pad of rat. Eight days later, blood was taken to obtain antiserum. The PCA titer for this antiserum in rat was 32 to 64.\nHeparin-containing PBS was injected intraperitoneally to rat which was sacrificed by exsanguination, after which the abdomen was well massaged to collect the injected PBS, which was purified by washing several times by centrifugation. The number of the mast cells contained in the solution was determined and adjusted to the designed concentration. As to method of sensitizing the cell, the above cell suspension (6 ml, 2×10^6 cells/ml) was treated with anti-DNP-Ascaris rat serum (PCA titer 32) (6 ml) and the mixture was incubated in the presence of hepain at 37° C. for 2 hours.\nTo the sensitized mast cell suspension the solution of the drug to be tested was added, and the mixture was preliminarily incubated at 37° C. for 12 minutes. After addition of the solution of antigen DNP-Ascaris (final concentration, 20 microgramms/ml), the mixture was further incubated for 20 minutes. After completion of the reaction, the solution was centrifuged (500 G, 10 min.) under a low temperature to obtain a supernatant solution. Histamine contained in the supernatant solution was subjected to fluorometry by crthophthalaldehyde method."}, "[7]": {"conditions": "read-out: Average Inhibition Rate (%) Antiserum Dilution: × 16"}, "[8]": {"conditions": "read-out: Average Inhibition Rate (%) Antiserum Dilution: × 32"}}, "note": "pIC50: −log10 of the molar value. Where two headings read alike, the source gives them in different places.", "data": [{"smiles": "O=C(Nc1ccccc1C(=O)O)C(=Cc1ccccc1)C(=O)Nc1ccccc1C(=O)O", "note": "[Compound 11, 2,2'-[(1,3-dioxo-2-phenylmethylene-1,3-propanediyl)diimino]bisbenzoic acid]", "values": [{"measurement": "inhibition in vivo at 10 mg/kg", "setting": "[1]; [7]", "result": 23.2, "unit": "%"}, {"measurement": "inhibition in vivo at 10 mg/kg", "setting": "[1]; [8]", "result": 33.1, "unit": "%"}, {"measurement": "inhibition in vivo at 50 mg/kg", "setting": "[1]; [7]", "result": 41.4, "unit": "%"}, {"measurement": "inhibition in vivo at 50 mg/kg", "setting": "[1]; [8]", "result": 39.1, "unit": "%"}, {"measurement": "inhibition in vivo at 100 mg/kg", "setting": "[1]; [7]", "result": 52.9, "unit": "%"}, {"measurement": "inhibition in vivo at 100 mg/kg", "setting": "[1]; [8]", "result": 53.5, "unit": "%"}, {"measurement": "pIC50", "setting": "[2]", "result": 4.66}, {"measurement": "inhibition in vivo at 50 mg/kg", "setting": "[3]; read-out: Inhibition, Anti-serum Dilution: × 12", "result": 20.8, "unit": "%"}, {"measurement": "inhibition in vivo at 50 mg/kg", "setting": "[3]; read-out: Inhibition, Anti-serum Dilution: × 24", "result": 23, "unit": "%"}, {"measurement": "Anti-SRS-A activity (rate of inhibition against the contraction amount)", "setting": "[4]; 10^-3 M", "result": 31.8}, {"measurement": "Anti-SRS-A activity (rate of inhibition against the contraction amount)", "setting": "[4]; 10^-4 M", "result": 0}, {"measurement": "Anti-SRS-A activity (rate of inhibition against the contraction amount)", "setting": "[4]; 10^-5 M", "result": 0}, {"measurement": "Anti-SRS-A activity (rate of inhibition against the contraction amount)", "setting": "[4]; 10^-6 M", "result": 0}, {"measurement": "anti-SRS-A activity (in words)", "setting": "[4]; compound 11 at a concentration of 10^-3 M", "result": "moderate anti-SRS-A activity"}, {"measurement": "LD50 at 168 h", "setting": "[5]", "result": "> 10000", "unit": "mg/kg"}, {"measurement": "activity at 1000 µM", "setting": "[6]; Rattus norvegicus, Mast cell, 20 min, 10^-3 M, DNP-Ascaris 20 microgramms/ml, read-out: Amount of histamine released from peritoneal mast cell (Control = 100)", "result": 13, "unit": "%"}, {"measurement": "activity at 100 µM", "setting": "[6]; Rattus norvegicus, Mast cell, 20 min, 10^-4 M, DNP-Ascaris 20 microgramms/ml, read-out: Amount of histamine released from peritoneal mast cell (Control = 100)", "result": 59, "unit": "%"}, {"measurement": "activity at 10 µM", "setting": "[6]; Rattus norvegicus, Mast cell, 20 min, 10^-5 M, DNP-Ascaris 20 microgramms/ml, read-out: Amount of histamine released from peritoneal mast cell (Control = 100)", "result": 51, "unit": "%"}, {"measurement": "activity at 1 µM", "setting": "[6]; Rattus norvegicus, Mast cell, 20 min, 10^-6 M, DNP-Ascaris 20 microgramms/ml, read-out: Amount of histamine released from peritoneal mast cell (Control = 100)", "result": 55, "unit": "%"}, {"measurement": "inhibition of release of histamine from the mast cell (in words)", "setting": "[6]; even at the low concentration of 10^-6 M", "result": "inhibiting release of histamine"}]}]}
